Patent US20120149080A1, “YEAST PRODUCTION CULTURE FOR THE PRODUCTION OF BUTANOL” (Butamax(TM) Advanced Biofuels LLC, priority 2010, published 2012)

What was measured:
[1] = system: Saccharomyces cerevisiae BY4743; assay: Glucose utilization rate in high cell density culture in YPD; format: cell-based
Procedure: Saccharomyces cerevisiae BY4743 was plated from a freezer vial onto YPD agar (Teknova, Hollister, Calif.; Cat. #Y1000) and incubated overnight at 30° C. Cells from the YPD plate were inoculated into a 25 ml pre-culture of YPD broth (Teknova, Hollister, Calif.; Cat. #Y5000) with an initial OD600 of 0.06 to 0.08, and this culture was grown for 7 hours in an air shaker at 30° C. An aliquot of the pre-culture was inoculated into 200 ml of YPD broth with an initial OD600 of 0.06 to 0.08, and this culture was incubated with aeration at 30° C. for approximately 17 hours. The optical density of the culture was determined, the culture was centrifuged and the cells were resuspended in fresh YPD broth to yield an OD600 of 8. […] Time of addition of cells was referred to as 0 hours. At various times, samples (1.5 ml) were withdrawn and centrifuged at 10,000 rpm for 2 minutes in a microfuge (Sorvall Biofuge pico). […] YSI, Inc., Yellow Springs, Ohio). Glucose consumption rates in the presence of isobutanol were also determined when the cell concentration was 18 gdcw/L or 24 gdcw/L. Cells from the YPD plate were inoculated into a 25 ml pre-culture of YPD broth (Teknova, Hollister, Calif. Cat. #Y5000) with an initial OD600 of 0.06 to 0.08, and this culture was grown for 7 hours in an air shaker at 30° C. […] The optical density of the culture was determined, the culture was centrifuged and the cells were resuspended in fresh YPD broth to yield an OD600 of 38 (18 gdcw/L). […] The experiment was repeated except that the starting OD600 was 49.1 (24 gdcw/L). […] The results for BY4743 are graphed in FIG. 4.

[2] = system: Issatchenkia orientalis PNY0660; assay: Glucose utilization rate in high cell density culture in corn test medium; format: cell-based; conditions: for Glucose utilization rate: 30 C., 0 h to 6 h, 2.7 gdcw/L, corn test medium
Procedure: Strain Issatchenkia orientalis PNY0660, was derived from ATCC 20381 strain that was previously referred to as Candida acidothermophilium. Strain PNY0660 was plated from a freezer vial onto YPD agar (Teknova, Hollister, Calif.; Cat. #Y1000) and incubated overnight at 30° C. Cells from the YPD plate were inoculated into a 50 ml pre-culture of YPD broth (Teknova, Hollister, Calif.; Cat. #Y5000) with an initial OD600 of 0.06 to 0.08, and this culture was grown for 5 hours in an air shaker at 30° C. An aliquot of the pre-culture was inoculated into 200 ml of YPD broth with an initial OD600 of 0.6, and this culture was incubated with aeration at 30° C. for approximately 17 hours. The optical density of the culture was determined, the culture was centrifuged, and the sugar consumption rate was determined in corn test medium. Corn test medium contained 0.2% casamino acids and 2% glucose and 100 mM MES buffer pH 5.25 and per liter contained (i) salts: ammonium sulfate 5.0 g, potassium phosphate monobasic 2.8 g, and magnesium sulfate heptahydrate 0.5 g, (ii) vitamins: biotin (D−) 0.40 mg, Ca D(+) panthotenate 8.00 mg, myo-inositol 200.00 mg, pyridoxol hydrochloride 8.00 mg, p-aminobenzoic acid 1.60 mg, riboflavin 1.60 mg, folic acid 0.02 mg, niacin 30.0 mg, and thiamine 30 mg; and (iii) trace elements: EDTA (Titriplex 1117) 99.38 mg, zinc sulphate heptahydrate 29.81 mg, manganese chloride dehydrate 5.57 mg, cobalt(II)chloride hexahydrate 1.99 mg, copper(II)sulphate pentahydrate 1.99 mg, Di-sodium molybdenum dehydrate 2.65 mg, calcium chloride dehydrate 29.81 mg, iron sulphate heptahydrate 19.88 mg, and boric acid.
20 ml cultures (2.7 gdcw/L) in corn test medium were transferred to flasks that contained 0.0%, 0.5%, 1.0%, 1.5%, 1.75% or 2.0% isobutanol. Time of addition of cells was referred to as 0 hours. At various times, samples (1.5 ml) were withdrawn and centrifuged at 10,000 rpm for 2 minutes in a microfuge (Sorvall Biofuge pico). The supernatant was filtered through a 0.2 μm filter (Pall Life Sciences, Port Washington, N.Y.) Pall GHP Acrodisc 13 mm Syringe Filter with 0.2 μm GHP Membrane), the filtrate was diluted ten-fold, and the glucose concentration was determined using a YSI Glucose Analyzer (YSI 2700 Select; YSI, Inc., Yellow Springs, Ohio).

[3] = 1.5% isobutanol, 3.8 and 24 gdcw/L cultures

For `CC(C)CO` [Isobutanol, isobutanol], the “calculated rate of glucose utilization” value ([1]; 1% isobutanol, high cell density cultures) was “at least 1.4 gram per gdcw per hour”, the glucose consumption rate [1, 3] was “about 1.1 g/gdcw/h” and the “glucose consumption rate, % of the control rate” value [1, 3] was “approximately 50%”. The “rate of glucose utilization” value ([1]; 1.5% isobutanol, 3.8 gdcw/L and 24 gdcw/L cultures) was “at least 1 gram per gdcw per hour”, the “rate of glucose utilization” value ([1]; 2% isobutanol, high cell density cultures) was “at least 0.5 gram per gdcw per hour” and the “rate of glucose utilization” value ([1]; 2.5% isobutanol, high cell density cultures) was “at least 0.4 gram per gdcw per hour”. For the same compound, the “rate of glucose utilization” value ([1]; 3% isobutanol, high cell density cultures) was “at least 0.2 gram per gdcw per hour”, the Glucose utilization rate ([2]; 5.0 g/L isobutanol) was 2.4 g/gdcw/h and the Glucose utilization rate ([2]; 10.0 g/L isobutanol) was 2.4 g/gdcw/h. The Glucose utilization rate ([2]; 15.0 g/L isobutanol) was 1.4 g/gdcw/h, the Glucose utilization rate ([2]; 17.5 g/L isobutanol) was 0.9 g/gdcw/h and the Glucose utilization rate ([2]; 20.0 g/L isobutanol) was 0.7 g/gdcw/h. For the same compound, the sugar consumption rate ([2]; I. orientalis strains, 20 g/l of isobutanol) was 0.7 g/gdw/h.
